Calls of active or inactive are those of the source. The calls are words filed in the database; no cut-off is given here.

In data set [1] the target is T1, Casein kinase I isoform delta (Homo sapiens, UniProt P48730). The following applies: at 10 µM.
Target sequence in this assay (P48730 whole entry, looked up, canonical isoform): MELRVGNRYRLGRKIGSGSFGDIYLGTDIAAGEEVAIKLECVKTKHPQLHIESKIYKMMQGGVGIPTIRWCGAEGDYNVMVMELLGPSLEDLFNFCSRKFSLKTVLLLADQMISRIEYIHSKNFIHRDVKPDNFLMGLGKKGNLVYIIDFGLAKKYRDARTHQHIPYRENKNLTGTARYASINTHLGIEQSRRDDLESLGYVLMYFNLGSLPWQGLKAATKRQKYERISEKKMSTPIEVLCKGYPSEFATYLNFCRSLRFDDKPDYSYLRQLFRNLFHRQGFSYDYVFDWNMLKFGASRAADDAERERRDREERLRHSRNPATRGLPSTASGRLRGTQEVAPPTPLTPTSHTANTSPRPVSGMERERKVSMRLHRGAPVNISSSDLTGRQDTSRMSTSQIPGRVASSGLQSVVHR
Description: Inhibition of human recombinant CK-1delta using casein as substrate at 10 uM after 60 mins by Kinase-Glo assay relative to control
Data set [2] addresses T1, Casein kinase I isoform delta. As to the kind of experiment: Inhibition of human recombinant CK-1delta using casein as substrate after 60 mins by Kinase-Glo assay.
Target sequence in this assay (P48730 whole entry, canonical isoform): as the sequence (P48730 whole entry, looked up, canonical isoform) above
For data set [3] the following is noted: pampa.
Description: Permeability of the compound by PAMPA
Data set [4] has as its target T1, Casein kinase I isoform delta. Nature of the data set: Competitive inhibition of human recombinant CK-1delta using casein as substrate at 0.25 to 0.5 uM by Lineweaver-Burk plot analysis in presence of ATP.
Target sequence in this assay (P48730 whole entry, looked up, canonical isoform): as above

As to `COc1ccc2nc(NC(=O)Cc3ccc(Cl)c(Cl)c3)sc2c1`, in data set [1], the inhibition is above 60%.

For the compound `CCOC(=O)c1sc(NC(=O)CNC(=O)CC(c2ccccc2)c2ccccc2)nc1C`, in data set [2], the half-maximal inhibitory concentration (IC50) is 3.79 µM.

In data set [3], `COc1cc(CC(=O)Nc2nc3ccc(OC(F)(F)F)cc3s2)cc(OC)c1OC` gave a permeability of 2.6 ×10⁻⁶ cm/s. For the same compound, in data set [1], the inhibition was above 60%.

With `CCOc1ccc2nc(NC(=O)C(c3ccccc3)c3ccccc3)sc2c1`, the inhibition in data set [1] was above 60%.

On to `O=C(Cc1cccc(Cl)c1)Nc1nncs1`, for which the inhibition in data set [1] turned out to be 20%.

`O=C(CCc1cccc(Cl)c1)Nc1nc2ccccc2s1` had an inhibition in data set [1] above 60%.

`CN(C)CCCN1c2ccccc2Sc2ccccc21` [PROMAZINE] came in with a permeability in data set [3] of 12.7 ×10⁻⁶ cm/s.

Compound `COc1ccc(NC(=O)Nc2nc3ccc(C(F)(F)F)cc3s2)cc1` showed an inhibition in data set [1] above 60%.

Compound `CCOc1ccc2nc(NC(=O)Cc3cc(OC)c(OC)c(OC)c3)sc2c1` came in with an inhibition in data set [1] above 60%.

In the case of `CCOC(=O)c1sc(NC(=O)CNC(=O)c2ccccc2)nc1C`, in data set [2], the IC50 worked out at 7.45 µM.

In data set [3], `O=C(Cc1ccccc1)Nc1nc2ccc(C(F)(F)F)cc2s1` gave a permeability of 4.4 ×10⁻⁶ cm/s. In addition, the inhibition in data set [1] was above 60%.

In turn, `CCOc1ccc2nc(NC(=O)Cc3ccc(Cl)c(Cl)c3)sc2c1` showed an inhibition in data set [1] above 60%.

Consider `CCOC(=O)c1sc(NC(=O)CNC(=O)c2ccc(N3CCOCC3)cc2)nc1C`, for which the IC50 in data set [2] is 9.31 µM.

In data set [1], `CCOc1ccc2nc(NC(=O)Cc3ccccc3Cl)sc2c1` displayed an inhibition above 60%.

For the compound `CN1C(C(=O)Nc2ccccn2)=C(O)c2ccccc2S1(=O)=O` [PIROXICAM], in data set [3], the permeability was 0.5 ×10⁻⁶ cm/s.

With `CC(=O)c1sc(NC(=O)Cc2cccc(Cl)c2)nc1C`, in data set [1], the inhibition is above 60%. In addition, the half-maximal inhibitory concentration (IC50) in data set [2] was 1.12 µM.

In turn, `COc1ccccc1CC(=O)Nc1nc2ccc(OC(F)(F)F)cc2s1` showed an inhibition in data set [1] above 60%.

`COc1ccccc1CC(=O)Nc1nc2ccc(Br)cc2s1` came in with an inhibition in data set [1] above 60%.

As for `O=C(Cc1ccc(Cl)c(Cl)c1)Nc1nc2ccc(OC(F)(F)F)cc2s1`, the inhibition in data set [1] is above 60%.

The compound `COc1ccc2nc(NC(=O)Cc3cccc(Cl)c3)sc2c1` returned an inhibition in data set [1] above 60%.

Regarding `COc1ccc2nc(NC(=O)Cc3ccc(Cl)cc3)sc2c1`, in data set [1], the inhibition was above 60%.

In data set [3], `COc1cccc(CC(=O)Nc2nc3ccc(C(F)(F)F)cc3s2)c1` yielded a permeability of 11.2 ×10⁻⁶ cm/s. The compound also yielded an inhibition in data set [1] above 60%.

`COc1cccc(CC(=O)Nc2nc3ccc(OC)cc3s2)c1` showed an inhibition in data set [1] above 60%.

In data set [3], `O=C(Cc1ccc(Cl)cc1)Nc1nc2ccc(C(F)(F)F)cc2s1` displayed a permeability of 9.6 ×10⁻⁶ cm/s. This compound also had an inhibition in data set [1] above 60%.

Regarding `CCOC(=O)c1sc(NC(=O)COCc2ccccc2)nc1C`, the inhibition in data set [1] is above 60%. In addition, the 50% inhibitory concentration (IC50) in data set [2] came out at 7.38 µM.

Consider `CS(=O)(=O)c1ccc2nc(NC(=O)Cc3cccs3)sc2c1`, for which the IC50 in data set [2] was determined as 2.69 µM.

`O=C(Nc1nc2ccccc2s1)C(c1ccccc1)c1ccccc1`: the inhibition in data set [1] is above 60%.

Take `COc1ccccc1CC(=O)Nc1nc2ccc(Cl)cc2s1`: in data set [1], the inhibition was above 60%.

In data set [1], `O=C(Cc1ccc(Cl)cc1)Nc1nc2ccccc2o1` gave an inhibition above 60%. The IC50 in data set [2] was found to be 4.11 µM.

For the compound `Cc1ccc2nc(NC(=O)Cc3cccc(Cl)c3)sc2c1`, the permeability in data set [3] stood at 5.6 ×10⁻⁶ cm/s. In data set [1], this compound gave an inhibition above 60%.

The compound `COc1ccccc1CC(=O)Nc1nc2ccc(C(F)(F)F)cc2s1` displayed a permeability in data set [3] of 11.2 ×10⁻⁶ cm/s. The compound further had an inhibition in data set [1] above 60%.

In turn, `COc1ccc(CC(=O)Nc2nc3ccc(OC)cc3s2)cc1` gave an inhibition in data set [1] above 60%.

`COc1ccc(OC)c(CC(=O)Nc2nc3ccc(C(F)(F)F)cc3s2)c1` had an inhibition in data set [1] above 60%.

As for `CCOc1ccc2nc(NC(=O)Cc3ccc(OC)cc3)sc2c1`, the inhibition in data set [1] was above 60%.

`COc1cc(CC(=O)Nc2nc3ccc(C(F)(F)F)cc3s2)cc(OC)c1OC` registered a permeability in data set [3] of 7.2 ×10⁻⁶ cm/s. For the same compound, the inhibition in data set [1] was above 60%.

`COc1ccc(CC(=O)Nc2nc3ccc(C(F)(F)F)cc3s2)cc1` gave a permeability in data set [3] of 14.6 ×10⁻⁶ cm/s. In data set [1], this compound gave an inhibition above 60%.

`O=C(Cc1cccc(C(F)(F)F)c1)Nc1nc2ccc(C(F)(F)F)cc2s1`: the permeability in data set [3] was 6.4 ×10⁻⁶ cm/s. Further, the inhibition in data set [1] is above 60%.

Turning to `COc1ccc2nc(NC(=O)Cc3ccccc3OC)sc2c1`, the inhibition in data set [1] was above 60%.

Turning to `CCOc1ccc2nc(NC(=O)Cc3cccc(OC)c3)sc2c1`, the inhibition in data set [1] is above 60%.

In the case of `O=C(CC(c1ccccc1)c1ccccc1)Nc1nc2ccccc2s1`, in data set [1], the inhibition was above 60%.

For the compound `COc1ccc2nc(NC(=O)Cc3cc(OC)c(OC)c(OC)c3)sc2c1`, the inhibition in data set [1] was above 60%. In data set [2], the 50% inhibitory concentration (IC50) was found to be 1.12 µM.

Consider `CCOC(=O)c1sc(NC(=O)CNC(=O)Cc2ccccc2)nc1C`, for which the half-maximal inhibitory concentration (IC50) in data set [2] was 10.1 µM.

In turn, `O=C(Cc1ccccc1)Nc1nc2ccccc2s1` registered an inhibition in data set [1] above 60%.

`O=C(Cc1cccc(Cl)c1)Nc1nc2ccc(OC(F)(F)F)cc2s1`: the inhibition in data set [1] was above 60%.

In data set [3], `O=C(Cc1cccc(Cl)c1)Nc1nc2ccc(C(F)(F)F)cc2s1` yielded a permeability of 11.2 ×10⁻⁶ cm/s. The compound further returned an inhibition in data set [1] above 60%.

Regarding `COc1ccccc1CC(=O)Nc1nc2ccc(F)cc2s1`, in data set [1], the inhibition is above 60%.

Compound `CNCCCN1c2ccccc2CCc2ccccc21` [DESIPRAMINE] showed a permeability in data set [3] of 14.6 ×10⁻⁶ cm/s.

Consider `COc1ccc2nc(NC(=O)Cc3ccccc3Cl)sc2c1`, for which the inhibition in data set [1] was above 60%.

As to `O=C(Cc1ccc(Cl)c(Cl)c1)Nc1nc2ccc(C(F)(F)F)cc2s1`, the permeability in data set [3] worked out at 1.4 ×10⁻⁶ cm/s. The inhibition in data set [1] is above 60%.

As for `CCOc1ccc2nc(NC(=O)Cc3ccc(Cl)cc3)sc2c1`, the inhibition in data set [1] is above 60%. Also, in data set [2], the concentration for half-maximal inhibition (IC50) is 1.11 µM.

In data set [1], `O=C(Cc1ccccc1Cl)Nc1nc2ccc(C(F)(F)F)cc2s1` came in with an inhibition above 60%.

Take `COc1cc(OC)c(C=C2C(=O)Nc3ccccc32)c(OC)c1`: the inhibition result in data set [4] was “Active”.

Compound `CCOc1ccc2nc(NC(=O)Cc3ccccc3OC)sc2c1` returned an inhibition in data set [1] above 60%.

As for `CCOc1ccc2nc(NC(=O)Cc3cccc(Cl)c3)sc2c1`, the inhibition in data set [1] is above 60%.

On to `COc1ccccc1CC(=O)Nc1nc2ccc(C)cc2s1`, for which the inhibition in data set [1] is above 60%.
